Patent publication US20240139125A1 (INDUSTRIAL COOPERATION FOUNDATION JEONBUK NATIONAL …, priority 2020, published 2024)

Test system: BAL inflammatory cells
Assay: Aspergillus-infected asthmatic mouse model, BAL cells and lung histology
Type: in vivo
Conditions: asthma-inducing group; BIA 0.1 mg/kg and 0.01 mg/kg, IC87114 1 mg/kg, intratracheal
Excerpt: FIG. 80A and FIG. 80B show mice that were infected with aspergillus with or without BIA, or IC87114, fixing the tissue to 4% formalin, injecting paraffin to make blocks, and then cutting into 4 μm thick to react to buffer and performing hematoxylin-eosin staining. The observation result (A) and the observation result (B) by PAS staining are shown.
The result is quantified by counting the total number of cells of living BAL fluid, excluding dead cells stained in trypan blue.
A. fumigatus-induced allergic pulmonary inflammation To establish the model, mice were treated with 10 μg of A. fumigatus crude antigen extract (Greer Laboratories, Cat # XPM3D3A4, Lenoir, NC, USA) with fungal substance inactivated. 0.2 ml of incomplete Freund's adjuvant (Sigma-Aldrich, Cat # F5506-6X) in regular saline It was dissolved and mixed, and half of the preparation was deposited in the peritoneal cavity and the rest was delivered subcutaneously. After 2 weeks, mice received 20 μg of A. fumigatus antigen dissolved in normal saline through the intranasal route, after an intranasal attack After 4 days, 20 μg of A. Fumigatus antigen dissolved in normal saline was treated via the endotracheal route. Control mice were administered only saline at the same time point in time through the same route and treated with the same number of conidia. […]

Q: Nc1ccccc1C(=O)/C=C/c1cccc([N+](=O)[O-])c1 [BIA, 2E-1-2-Aminophenyl-3-3-nitrophenyl-2-propen-1-one] was tested. Which “all BAL inflammatory cells” value did it give?
A: The value was “inhibited”.
